Tested on: MS cells
Assay: ROS production by flow cytometry, mammosphere cells (FIG. 8)
Assay type: cell-based, human
Conditions: 3 h; α-TOS 50 μM, MitoVES homologues 5 μM
Experimental: Adherent MCF7 cells and the corresponding mammosphere cells (MS) were cultured and assessed for morphological changes by microscopy (A) and for expression levels of markers as indicators of “sternness” by RT-PCR (B) and flow cytometry (C), including the expression of CD44 and CD24 (D). The adherent MCF7 cells (E) and the MS cells (F) were treated with 5 μM MitoVES, 50 μM α-TOS or 10 μM parthenolide and assessed for their sensitivity to drug induced cell death. […] Adherent MCF7 cells (I) and MS cells (J) were treated for 3 h with α-TOS (50 μM) or MitoVES homologues containing different lengths in the aliphatic side chain (5 μM each, either 11, 7 or 5 carbon chain in length) and the treated cells assessed for production of reactive oxygen species (ROS) by flow cytometry.
Cellular ROS were detected indirectly by flow cytometry and directly by electron paramagnetic resonance (EPR) spectroscopy, following treatment of cells with α-TOS as indicated in the Legend to Figures. […] For indirect evaluation, cells were treated with α-TOS and reacted with dihydrodichlorofluorescein diacetate (DCF; Molecular Probes) for 30 min, and scored by flow cytometry for cells with high fluorescence, which was evaluated on the bases on increase in mean fluorescence intensity. […]

## Cc1c(C)c2c(c(C)c1OC(=O)CCC(=O)O)CC[C@@](C)(CCC[C@H](C)CCC[C@H](C)CCCC(C)C)O2 [α-TOS, α-tocopheryl succinate, reference compound]
  ROS production in MS cells: much lower levels

— US8598145B2, “Mitochondrially delivered anti-cancer compounds” (priority 2008, dated 2013)
